Experimental data published in patent US10195297B2, “Iron garnet nanoparticles for cancer radiotherapy and chemotherapy” (priority 2014, dated 2019).

How the values were obtained:
human NSCLC A549 cells [1] = experiment: MTS cytotoxicity of neutron-activated nanoparticles and free Pt drugs (Example 2); assay type: cell-based; conditions: 24 h
Experimental: The radioactivity of nanoparticles prior to administration to cells was determined using a 2470 WIZARD 2 automatic gamma counter. Studies involving human NSCLC A549 cells were carried out under standard conditions in a humidified, 37° C., 5% CO2 atmosphere incubator. The culture medium used for A549 cells was minimum essential medium to which had been added 10% fetal calf serum, 100 μg/mL streptomycin, 100 IU/mL penicillin and 2.0 mM L-glutamine. Cells were seeded at 5×10^4 cells/ml (100 μL/well) in 96-well plates and allowed to grow for 24 h after which time the medium was removed and replaced with medium and drug. After an exposure time of 24 h, the medium with drug was removed and replaced with 100 μL of fresh medium. To each well, 20 μL of CellTiter 96® AQueous One Solution Cell Proliferation Assay (MTS) solution was added. After 2 h incubation with the MTS solution, the absorbance was read at 490 nm using a Synergy™ H1 hybrid multi-mode microplate reader. The percent survival of cells treated by each concentration of drug was calculated using the following equation:
[formula] where Ad is the absorbance of cells treated with drug, Am is the absorbance of medium alone and Ac is the absorbance of cells without treatment. The % survival data was fit to exponential regression and IC50 values calculated.

human NSCLC A549 cells [2] = experiment: MTS cytotoxicity studies of 166HoIG, 166HoIG-Pt and free Pt drugs (Example 6); assay type: cell-based; conditions: 24 h
Experimental: Cytotoxicity studies. The studies involving human NSCLC A549 cells were carried out under standard conditions in a humidified, 37° C., 5% CO2 atmosphere incubator. The culture medium used for A549 was Roswell Park Memorial Institute with 10% fetal calf serum (FCS), 100 μg/mL streptomycin, 100 IU/mL penicillin and 2.0 mM L-glutamine (RPMI).
Suspensions of each type of neutron-activated nanoparticle were prepared in RPMI. Two control groups, RPMI alone and RPMI with cells not exposed to ^166Ho nanoparticles, were included in each 96-well plate. At least four replicates were done for each concentration and each control group. The cells were seeded at 5×10^4 cells/mL (100 μL/well) in 96-well plates and allowed to grow for 24 h after which time the RPMI was removed and replaced with 100 μL of RPMI that contained blank ^166HoIG or ^166HoIG-Pt. After an exposure time of 24 h on a microplate shaker in the incubator, the RPMI was removed and replaced with 100 μL of fresh RPMI. […] After 1 h incubation with the MTS solution, the absorbance was read at 490 nm using a Synergy™ H1 hybrid multi-mode microplate reader. The percent survival of cells treated by each concentration of nanoparticles was calculated using the following equation:
[formula] where Ad is the absorbance of cells treated with nanoparticles, Am is the absorbance of medium alone and Ac is the absorbance of cells without treatment.

| Structure (SMILES) | synergy with the radioactive Ho (human NSCLC A549 cells [1]) | synergy with radiation (human NSCLC A549 cells [2]) |
| --- | --- | --- |
| N.N.[Cl][Pt][Cl] [cis, cisplatin] | act synergistically | – |
| N.N.O=C([O-])C1(C(=O)[O-])CCC1.[Pt+2] [Free carboplatin, carboplatin] | – | did not act synergistically with radiation |
